According to BindingDB's records for doi:10.1021/ml300172p (2012):
pIC50: −log10 of the molar value.

Assays:
[1] = Inhibition of Smo in mouse C3H10T1/2 cells assessed as inhibition of human Shh-induced cell differentiation after 48 hrs by alkaline phosphatase reporter assay
[2] = Inhibition of human Shh-induced mouse C3H10T1/2 cell differentiation after 48 hrs by alkaline phosphatase reporter assay

O=C(C[C@@H]1C/C=C/CCC(=O)O[C@H](c2ccccc2)CNC1=O)NCCCC(F)(F)F
pIC50 [1]: 5.40

C[C@H]1C/C=C/C[C@@H](CC(=O)NCc2ccc(Cl)cc2)C(=O)OC[C@@H](c2ccccc2)NC1=O
pIC50 [1]: 5.10

C[C@H]1[C@@H](c2ccccc2)OC(=O)CCCCC[C@@H](CC(=O)NCc2ccc(Cl)cc2)C(=O)N1C
pIC50 [1]: 4.96

CN1CCN(C(=O)C[C@@H]2C/C=C/CCC(=O)O[C@H](c3ccccc3)CNC2=O)CC1
pIC50 [1]: < 4.60

CC(=O)N[C@@H]1C/C=C/CCC(=O)N[C@H](c2ccccc2)COC1=O
pIC50 [1]: < 4.60

C=CCCC(=O)O[C@@H](CNC(=O)[C@@H](CC=C)CC(=O)NCc1ccc(Cl)cc1)c1ccccc1
pIC50 [1]: < 4.60

O=C(C[C@@H]1C/C=C/CCC(=O)O[C@H](c2ccccc2)CNC1=O)NCc1ccc(Cl)cc1 [N-(4-chlorobenzyl)-2-((2R,6S,E)-5,12-dioxo-2-phenyl-1-oxa-4-azacyclododec-8-en-6-yl)acetamide]
pIC50 [2]: < 4.60

CCCC[C@@H]1COC(=O)[C@H](CC(=O)NCc2ccc(Cl)cc2)C/C=C/CCC(=O)N1
pIC50 [1]: < 5.00

C[C@H]1[C@@H](c2ccccc2)OC(=O)CC/C=C/C[C@@H](CC(=O)NCc2ccc(Cl)cc2)C(=O)N1C
pIC50 [1]: 5.10

C[C@H]1C/C=C\C[C@@H](CC(=O)NCc2ccc(Cl)cc2)C(=O)OC[C@@H](c2ccccc2)NC1=O
pIC50 [1]: 5.40

O=C(C[C@@H]1C/C=C/CCC(=O)N[C@H](c2ccc(F)cc2)COC1=O)NCc1ccc(Cl)cc1
pIC50 [1]: 5.30

O=C(C[C@@H]1C/C=C/CCC(=O)N[C@@H]2c3ccccc3C[C@@H]2OC1=O)NCc1ccc(Cl)cc1
pIC50 [1]: < 4.60

O=C(C[C@@H]1C/C=C/CCC(=O)N[C@H](c2ccc(Cl)cc2)COC1=O)NCc1ccc(Cl)cc1
pIC50 [1]: 6.22

O=C(C[C@@H]1C/C=C/CCC(=O)N[C@H](Cc2ccccc2)COC1=O)NCc1ccc(Cl)cc1
pIC50 [1]: 5.40

O=C(C[C@@H]1C/C=C/CCC(=O)N[C@@H](c2ccccc2)COC1=O)NCc1ccc(Cl)cc1
pIC50 [1]: 4.70

O=C(C[C@@H]1C/C=C/C[C@H](Cc2ccccc2)C(=O)N[C@H](c2ccccc2)COC1=O)NCc1ccc(Cl)cc1
pIC50 [1]: 5.22

C[C@@H]1C/C=C/CCC(=O)N[C@H](c2ccccc2)COC1=O
pIC50 [1]: < 4.60

O=C(C[C@@H]1C/C=C/CCC(=O)OCCNC1=O)NCc1ccc(Cl)cc1 [(S,E)-N-(4-chlorobenzyl)-2-(5,12-dioxo-1-oxa-4-azacyclododec-8-en-6-yl)acetamide]
pIC50 [1]: < 4.60

O=C(C[C@@H]1C/C=C/CCC(=O)OC[C@@H]2CCCN2C1=O)NCc1ccc(Cl)cc1
pIC50 [1]: 4.82

CC(C)N[C@H]1C/C=C/C[C@@H](CC(=O)NCc2ccc(Cl)cc2)C(=O)NC[C@@H](c2ccccc2)OC1=O
pIC50 [1]: < 4.60

C[C@@H]1NC(=O)[C@H](CC(=O)NCc2ccc(Cl)cc2)C/C=C/CCC(=O)O[C@@H]1c1ccccc1
pIC50 [1]: 4.82

CC(C)(C)OC(=O)C[C@@H]1C/C=C/CCC(=O)N[C@H](c2ccccc2)COC1=O
pIC50 [1]: 5.15

C[C@H]1NC(=O)[C@H](CC(=O)NCc2ccc(Cl)cc2)C/C=C/CCC(=O)O[C@@H]1c1ccccc1
pIC50 [1]: 4.96

CC(C)[C@@H]1COC(=O)[C@H](CC(=O)NCc2ccc(Cl)cc2)C/C=C/CCC(=O)N1
pIC50 [1]: 4.64

O=C(C[C@@H]1C/C=C/CCC(=O)O[C@H](c2ccccc2)CNC1=O)NCc1cccc(Cl)c1
pIC50 [1]: 5.30

O=C(C[C@@H]1C/C=C/CCC(=O)N[C@H](C2CCCCC2)COC1=O)NCc1ccc(Cl)cc1
pIC50 [1]: 5.30

O=C(CN1C/C=C/CCC(=O)N[C@H](c2ccccc2)COC1=O)NCc1ccc(Cl)cc1
pIC50 [1]: < 4.60

CN1C[C@@H](c2ccccc2)OC(=O)CC/C=C/C[C@@H](Cc2ccc(Cl)cc2)C1=O
pIC50 [1]: 5.10

O=C(C[C@@H]1C/C=C/CCC(=O)N[C@H](c2ccccc2)COC1=O)NCc1ccc(Cl)cc1
pIC50 [1]: 5.30

CC1=C2C[C@H]3[C@@H](CC=C4C[C@@H](O)CC[C@@]43C)[C@@H]2CC[C@]12O[C@@H]1C[C@H](C)CN[C@H]1[C@H]2C
pIC50 [2]: 6.22
